# Read-outs that look alike come from different tables or passages of the source.
# B1: Catalase (protein, UniProt P00432 2-527, looked up)
# Catalase: ADNRDPASDQMKHWKEQRAAQKPDVLTTGGGNPVGDKLNSLTVGPRGPLLVQDVVFTDEMAHFDRERIPERVVHAKGAGAFGYFEVTHDITRYSKAKVFEHIGKRTPIAVRFSTVAGESGSADTVRDPRGFAVKFYTEDGNWDLVGNNTPIFFIRDALLFPSFIHSQKRNPQTHLKDPDMVWDFWSLRPESLHQVSFLFSDRGIPDGHRHMNGYGSHTFKLVNANGEAVYCKFHYKTDQGIKNLSVEDAARLAHEDPDYGLRDLFNAIATGNYPSWTLYIQVMTFSEAEIFPFNPFDLTKVWPHGDYPLIPVGKLVLNRNPVNYFAEVEQLAFDPSNMPPGIEPSPDKMLQGRLFAYPDTHRHRLGPNYLQIPVNCPYRARVANYQRDGPMCMMDNQGGAPNYYPNSFSAPEHQPSALEHRTHFSGDVQRFNSANDDNVTQVRTFYLKVLNEEQRKRLCENIAGHLKDAQLFIQKKAVKNFSDVHPEYGSRIQALLDKYNEEKPKNAVHTYVQHGSHLSAREKANL
# notes: enzyme neutralizer from Sigma-Aldrich, 226 units added per vial
# Key:
# [1] = tested on: Geobacillus stearothermophilus spores; assay: Hydrogen peroxide neutralizers in BI recovery medium, spore outgrowth after STERRAD 100S cycle; type: cell-based; parameters: key to Negative Control / Positive Control: Pos*/Neg*—positive (yellow) or negative (purple) was discolored by the additive; Pos*/Neg*—positive (yellow) or negative (purple) was discolored by the additive; Neg^3—positive control did not grow
# Experimental: This example compares the neutralization effectiveness of different additives in the biological indicators recovery medium. The additives (neutralizers) were added to the recovery media used in the 3M ATTEST 1292 Rapid Readout Biological Indicators. Catalase, L-cysteine, sodium thiosulfate, D-ethionine, S-methyl-cysteine, S-benzyl-L-cysteine, thiodiproprionic acid, potassium ferricyanide and sodium pyruvate were all purchased from Sigma-Aldrich Corporation, St. Louis, Mo. Isoascorbic acid was purchased from Alfa Aesar, Ward Hill, Mass. Methionine was purchased from Calbiochem, EMD Chemicals, Gibbstown, N.J.
# 3M ATTEST 1292 Biological Indicators were steam sterilized to kill the existing spore population. Two sets of 3M ATTEST 1292 BIs were evaluated, one set contained the paper spore carrier used in the commercially available indicator. In the second set, the spore carrier was replaced with fiberglass strips, commercially available as […] 230-11.0 (Crane &Co., Inc., Dalton, Mass.). The steam sterilized BIs were then exposed in a STERRAD 100S hydrogen peroxide/plasma sterilization cycle. Immediately following the hydrogen peroxide/plasma sterilization, the BIs containing media with and without additives were inoculated with less than 100 Geobacillus stearothermophilus spores recovered from a 3M ATTEST 1292 BI spore strip. The indicators were incubated at 60° C. (+/−2° C.) for 7 days and observed for growth, indicated by a color change from purple to yellow. A positive and negative control was tested for each additive. The positive controls were steam sterilized and inoculated with less than 100 spores. The negative controls were steam sterilized.
# [2] = tested on: Geobacillus stearothermophilus spores; assay: Remediation of residual hydrogen peroxide, spore recovery method with sodium thiosulfate; type: cell-based
# [3] = additive 1 g/l, CRANEGLAS fiberglass carrier, 7 days
# [4] = additive 1 g/l, paper spore carrier, 7 days
# [5] = additive 1 g/l, steam sterilized and inoculated with less than 100 spores, no H2O2
# [6] = additive 1 g/l, steam sterilized, not inoculated
# [7] = additive 2 g/l, CRANEGLAS fiberglass carrier, 7 days
# [8] = additive 2 g/l, paper spore carrier, 7 days
# [9] = additive 2 g/l, steam sterilized and inoculated with less than 100 spores, no H2O2
# [10] = additive 2 g/l, steam sterilized, not inoculated
# [11] = additive 4 g/l, CRANEGLAS fiberglass carrier, 7 days
# [12] = additive 4 g/l, paper spore carrier, 7 days
# [13] = additive 4 g/l, steam sterilized and inoculated with less than 100 spores, no H2O2
# [14] = additive 4 g/l, steam sterilized, not inoculated
# [15] = additive 8 g/l, CRANEGLAS fiberglass carrier, 7 days
# [16] = additive 8 g/l, paper spore carrier, 7 days
# [17] = additive 8 g/l, steam sterilized and inoculated with less than 100 spores, no H2O2
# [18] = additive 8 g/l, steam sterilized, not inoculated
Molecule,"No. Pos. CRANEGLAS [1, 3]","No. Pos. Paper [1, 4]","Positive Control [1, 5]","Negative Control [1, 6]","No. Pos. CRANEGLAS [1, 7]","No. Pos. Paper [1, 8]","Positive Control [1, 9]","Negative Control [1, 10]","No. Pos. CRANEGLAS [1, 11]","No. Pos. Paper [1, 12]","Positive Control [1, 13]","Negative Control [1, 14]","No. Pos. CRANEGLAS [1, 15]","No. Pos. Paper [1, 16]","Positive Control [1, 17]","Negative Control [1, 18]",also measured
CCSCC[C@@H](N)C(=O)O [D-ethionine],4,2,Pos,Neg,4,0,Pos,Neg,4,2,Pos,Neg,4,3,Pos,Neg,–
O=C1O[C@H]([C@H](O)CO)C(O)=C1O [Isoascorbic acid],0,3,Pos,Neg,4,3,Pos,Neg*,4,3,Pos*,Neg*,4,3,Pos*,Neg*,Additive level that effectively neutralized the paper carriers ([1]; paper carriers): 1 gram per liter
N[C@@H](CS)C(=O)O [L-cysteine],4,1,Pos,Neg,4,0,Pos,Neg,4,3,Pos,Neg,4,3,Pos,Neg,–
CSCC[C@H](N)C(=O)O [Methionine],4,0,Pos,Neg,4,0,Pos,Neg,4,3,Pos,Neg,4,3,Pos,Neg,–
N[C@@H](CSCc1ccccc1)C(=O)O [S-benzyl-L-cysteine],4,0,Pos,Neg,4,0,Pos,Neg,4,0,Pos,Neg,–,–,–,–,–
CSC[C@H](N)C(=O)O [S-methyl-cysteine],4,0,Pos,Neg,4,0,Pos,Neg,4,2,Pos,Neg,4,3,Pos*,Neg,–
"CC(=O)C(=O)[O-].[Na+] [Sodium pyruvate, sodium pyruvate]",–,0,Pos,Neg,–,2,Pos,Neg,–,3,Pos,Neg,–,3,Pos,Neg,–
"O=S([O-])([O-])=S.[Na+].[Na+] [Sodium thiosulfate, sodium thiosulfate]",–,–,–,–,–,–,–,–,–,–,–,–,–,–,–,–,Additive level that effectively neutralized the paper carriers [1]: 1 gram per liter; Negative Control [1]: Neg and Neg*; No. Pos. CRANEGLAS [1]: 4; No. Pos. Paper [1]: 3; Positive Control [1]: Pos; Spore recovery ability (in words) [2]: good spore recovery agent
"O=C(O)CCSCCC(=O)O [Thiodiproprionic acid, thiodiproprionic acid]",1,0,Pos,Neg,3,0,Neg^3,Neg,3,0,Neg^3,Neg,3,3,Pos,Neg,–
B1,–,–,–,–,–,–,–,–,–,–,–,–,–,–,–,–,"Neutralization of residual hydrogen peroxide (in words) [1]: sufficiently neutralized; No. Pos. CRANEGLAS ([1]; 226 units added per vial, CRANEGLAS fiberglass carrier, 7 days): 4; No. Pos. Paper ([1]; 226 units added per vial, paper spore carrier, 7 days): 3; Positive Control ([1]; 226 units added per vial, steam sterilized and inoculated): Pos; Negative Control ([1]; 226 units added per vial, steam sterilized, not inoculated): Neg"

# From patent US20150159192A1, “STERILIZATION INDICATORS INCLUDING A NEUTRALIZER AND METHODS” (3M INNOVATIVE PROPERTIES COMPANY, priority 2010, published 2015)
